According to US6995263B2, “Indolyl and dihydroindolyl derivatives, their manufacture and use as pharmaceutical agents” (Hoffmann-La Roche Inc., priority 2003, dated 2006):

Experiments:
PPARα = molecular target: T1, PPARα (Homo sapiens, UniProt Q07869); experiment: Radioligand binding assay (SPA), PPARα receptor binding; settings: GST-PPARα-LBD fusion protein, scintillation proximity counting
T1 construct: PPARα (aa 167 to 469); made in house; host or cells: E. coli BL21(pLysS)
T1 sequence (Q07869 167-468 limits assumed): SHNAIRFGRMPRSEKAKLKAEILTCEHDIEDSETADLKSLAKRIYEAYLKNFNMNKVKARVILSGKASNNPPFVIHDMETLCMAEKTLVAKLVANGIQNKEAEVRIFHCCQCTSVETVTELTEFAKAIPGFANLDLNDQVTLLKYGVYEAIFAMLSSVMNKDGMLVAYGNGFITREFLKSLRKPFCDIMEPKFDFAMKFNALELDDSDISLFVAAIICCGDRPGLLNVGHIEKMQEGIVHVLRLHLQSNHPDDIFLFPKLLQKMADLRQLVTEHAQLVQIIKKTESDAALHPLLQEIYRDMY
Description: (§1) Background information on the performed assays can be found in: Nichols J S et al. “Development of a scintillation proximity assay for peroxisome proliferator-activated receptor gamma ligand binding domain”, (1998) Anal. Biochem. 257:112–119.
(§2) Full-length cDNA clones for humans PPARδ and PPARα and mouse PPARγ were obtained by RT-PCR from human adipose and mouse liver cRNA, respectively, cloned into plasmid vectors and verified by DNA sequencing. Bacterial and mammalian expression vectors were constructed to produce glutathione-s-transferase (GST) and Gal4 DNA binding domain proteins fused to the ligand binding domains (LBD) of PPARδ (aa 139 to 442), PPARγ (aa 174 to 476) and PPARα (aa 167 to 469). To accomplish this, the portions of the cloned sequences encoding the LBDs were amplified from the full-length clones by PCR and then subcloned into the plasmid vectors. Final clones were verified by DNA sequence analysis.
(§3) Induction, expression, and purification of GST-LBD fusion proteins were performed in E. coli strain BL21(pLysS) cells by standard methods (Ref: Current Protocols in Molecular Biology, Wiley Press, edited by Ausubel et al.).
(§4) PPARα receptor binding was assayed in TKE50 (50 mM Tris-HCl, pH 8, 50 mM KCl, 2 mM EDTA, 0.1 mg/ml fatty acid-free BSA and 10 mM DTT). For each 96 well reaction an 140 ng equivalent of GST-PPARα-LBD fusion protein was bound to 10 μg SPA beads (PharmaciaAmersham) in a final volume of 50 μl by shaking. The resulting slurry was incubated for 1 h at RT and centrifuged for 2 min at 1300 g. The supernatant containing unbound protein was removed and the semidry pellet containing the receptor-coated beads was resolved in 50 μl of TKE. […] All binding assays were performed in 96 well plates and the amount of bound ligand measured on a Packard TopCount using OptiPlates (Packard). Nonspecific binding was determined in the presence of 10^−4 M unlabelled compound. […]

PPARδ = molecular target: T2, PPARδ (Homo sapiens, UniProt Q03181); experiment: Radioligand binding assay (SPA), PPARδ receptor binding; settings: GST-PPARδ-LBD fusion protein, scintillation proximity counting
T2 construct: PPARδ (aa 139 to 442); made in house; host or cells: E. coli BL21(pLysS)
T2 sequence (Q03181 139-441 limits assumed): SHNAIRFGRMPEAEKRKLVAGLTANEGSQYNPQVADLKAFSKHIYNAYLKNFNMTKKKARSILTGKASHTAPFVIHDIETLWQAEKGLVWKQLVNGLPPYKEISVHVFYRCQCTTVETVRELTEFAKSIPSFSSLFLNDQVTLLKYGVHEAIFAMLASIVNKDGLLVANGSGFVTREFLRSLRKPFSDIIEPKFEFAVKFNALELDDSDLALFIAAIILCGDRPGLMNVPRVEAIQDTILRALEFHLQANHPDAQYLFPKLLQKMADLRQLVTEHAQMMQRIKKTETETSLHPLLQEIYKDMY
Description: as §1, §2, §3
PPARδ receptor binding was assayed in HNM10 (50 mM Hepes, pH 7.4, 10 mM NaCl, 5 mM MgCl2, 0.15 mg/ml fatty acid-free BSA and 15 mM DTT). For each 96 well reaction a 500 ng equivalent of GST-PPARδ-LBD fusion protein and radioligand, e.g. 20000 dpm {2-methyl-4-[4-methyl-2-(4-trifluoromethyl-phenyl)-thiazol-5-yl-ditritiomethylsulfanyl]-phenoxy}-acetic acid, was bound to 10 μg SPA beads (PharmaciaAmersham) in a final volume of 50 μl by shaking. The resulting slurry was incubated for 1 h at RT and centrifuged for 2 min at 1300 g. […] Radioligand was added and the reaction incubated at RT for 1 h and scintillation proximity counting performed in the presence of test compounds was determined. All binding assays were performed in 96 well plates and the amount of bound ligand was measured on a Packard TopCount using OptiPlates (Packard). […]

PPARγ = molecular target: T3, PPARγ (Mus musculus, UniProt P37238); experiment: Radioligand binding assay (SPA), PPARγ receptor binding; settings: GST-PPARγ-LBD fusion protein, scintillation proximity counting
T3 construct: PPARγ (aa 174 to 476); made in house; host or cells: E. coli BL21(pLysS)
T3 sequence (P37238 174-475 isoform P37238-2): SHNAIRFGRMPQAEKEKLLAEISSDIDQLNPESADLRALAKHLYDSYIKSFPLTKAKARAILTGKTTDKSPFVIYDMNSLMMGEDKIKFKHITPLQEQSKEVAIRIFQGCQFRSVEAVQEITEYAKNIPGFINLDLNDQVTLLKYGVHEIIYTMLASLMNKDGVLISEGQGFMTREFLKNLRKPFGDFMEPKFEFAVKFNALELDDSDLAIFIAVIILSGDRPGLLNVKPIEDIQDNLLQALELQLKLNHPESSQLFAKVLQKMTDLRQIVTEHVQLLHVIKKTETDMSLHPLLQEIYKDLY
Description: as §1, §2, §3
as §4, with “PPARγ” for “PPARα”, “GST-PPARγ-LBD” for “GST-PPARα-LBD”, “ul” for “μl”

| IC50 (PPARα) | IC50 (PPARδ) | IC50 (PPARγ) | SMILES |
| --- | --- | --- | --- |
| 1320 nM | 83 nM | > 10000 nM | Cc1nc(-c2ccc(C(F)(F)F)cc2)ncc1COc1ccc2c(ccn2CC(=O)O)c1 [Example 2, {5-[4-Methyl-2-(4-trifluoromethyl-phenyl)-pyrimidin-5-ylmethoxy]-indol-1-yl}-acetic acid] |
| 1580 nM | 17 nM | > 10000 nM | Cc1nc(-c2ccc(C(F)(F)F)cc2)ccc1COc1ccc2c(c1)N(CC(=O)O)CC2 [Example 6, {6-[2-Methyl-6-(4-trifluoromethyl-phenyl)-pyridin-3-ylmethoxy]-2,3-dihydro-indol-1-yl}-acetic acid] |
| 211 nM | 1 nM | > 10000 nM | O=C(O)Cn1ccc2ccc(OCc3cnc(-c4ccc(C(F)(F)F)cc4)nc3C3CC3)cc21 [Example 7, {6-[4-Cyclopropyl-2-(4-trifluoromethyl-phenyl)-pyrimidin-5-ylmethoxy]-indol-1-yl}-acetic acid] |
